Measured values as given in US6040149A, “Assay for identifying agents which act on the ceramide-activated protein kinase, kinase suppressor of ras, and methods of using said agents” (priority 1997, dated 2000).

Key:
[1] = biological target: T1, KSR (Mus musculus, UniProt Q61097); assay: Phosphorylation and activation of recombinant Raf-1 by KSR immunoprecipitated from treated COS-7 cells; assay type: cell-based, mouse (KSR expressed in COS-7 cells); details: C2-ceramide 1 μM; TNFα 10 nM
T1 sequence (Q61097 1-873): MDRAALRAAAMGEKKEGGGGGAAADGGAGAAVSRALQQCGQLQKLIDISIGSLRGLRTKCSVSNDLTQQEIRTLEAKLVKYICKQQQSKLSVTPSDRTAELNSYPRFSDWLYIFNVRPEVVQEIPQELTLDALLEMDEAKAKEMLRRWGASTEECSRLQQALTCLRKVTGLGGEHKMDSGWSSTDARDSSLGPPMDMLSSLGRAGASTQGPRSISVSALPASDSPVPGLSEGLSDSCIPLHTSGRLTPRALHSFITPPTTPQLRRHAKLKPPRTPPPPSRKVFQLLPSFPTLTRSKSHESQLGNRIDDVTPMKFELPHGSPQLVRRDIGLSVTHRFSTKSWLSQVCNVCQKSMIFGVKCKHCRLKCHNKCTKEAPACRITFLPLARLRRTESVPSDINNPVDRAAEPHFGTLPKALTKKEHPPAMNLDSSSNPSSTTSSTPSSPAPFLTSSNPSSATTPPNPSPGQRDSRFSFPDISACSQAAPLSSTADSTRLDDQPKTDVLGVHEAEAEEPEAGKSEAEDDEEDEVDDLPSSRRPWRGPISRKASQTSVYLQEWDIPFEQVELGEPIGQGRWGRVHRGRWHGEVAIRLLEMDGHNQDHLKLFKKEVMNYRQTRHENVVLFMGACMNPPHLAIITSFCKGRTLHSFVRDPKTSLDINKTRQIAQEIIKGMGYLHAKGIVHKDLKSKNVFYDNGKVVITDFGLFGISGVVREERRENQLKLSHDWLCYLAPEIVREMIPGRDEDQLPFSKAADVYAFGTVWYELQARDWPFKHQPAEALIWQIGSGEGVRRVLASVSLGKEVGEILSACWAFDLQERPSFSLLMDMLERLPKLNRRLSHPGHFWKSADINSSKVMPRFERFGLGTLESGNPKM
Method: FIGS. 23B-23C--COS-7 cells expressing Flag-tagged KSR were stimulated with 1 μM C2-ceramide for 10 min and lysed with NP-40 buffer as in FIG. 23A. […] The autoradiogram was exposed for 1 hour. Data represent one of three experiments.
(§1) COS-7 cells expressing Flag-tagged KSR were stimulated with 10 nM TNFα for the times indicated and lysed with NP-40 buffer as in FIG. 2A. […] The autoradiogram was exposed for 1 hour. Data represent one of three similar experiments.
Immunoprecipitated KSR was incubated with reaction buffer A containing 0.5 mM ATP and a protein kinase inhibitor cocktail [20 μM PKC inhibitor peptide (UBI), 2 μM protein kinase A inhibitor peptide (UBI) and 20 μM R24571 (Sigma)] for 30 min at 22° C.

[2] = biological target: T1, KSR; assay: KSR autophosphorylation after treatment of COS-7 cells expressing KSR; assay type: cell-based, mouse (KSR expressed in COS-7 cells)
Method: FIG. 23A--COS-7 cells were transfected as in FIG. 22A and placed in serum-free medium. After 4 hours, cells were stimulated for 10 min with the ceramide analog, C2-ceramide (Biomol), at the concentrations indicated. Cells were lysed with NP-40 lysis buffer, and Flag-tagged KSR (0.8 mg protein for each point) was immunoprecipitated and assayed for autophosphorylation activity as described in Experimental Procedures. The autoradiogram was exposed for 1 hour. KSR is expressed at similar levels in each sample as monitored by Western blot (data not shown). Data represent one of three similar experiments.
as §1
KSR was immunoprecipitated as above from 0.8 mg NP-40 lysate protein with 40 μl agarose-conjugated anti-Flag antibody at 4° C. for 4 hrs or overnight. […] The reaction was stopped by addition of Laemmli sample buffer. Samples were resolved by 7.5% sodium dodecyl sulfate-polyacrylamide gel electrophoresis (SDS-PAGE) and autoradiographed.

[3] = tested on: KSR/Raf-1 complex; assay: Co-immunoprecipitation of KSR and Raf-1 from treated COS-7 cells; assay type: cell-based, mouse KSR (COS-7 cells)
Method: FIG. […] Cells were lysed with NP-40 buffer and subjected to 4 hr of immunoprecipitation with anti-Raf-1 antibody. Two controls, KSR and KSR with ceramide treatment, received protein A conjugated sepharose beads without anti-Raf-1 antibody. […] Data represent one of four similar experiments.
Cell lysates were subjected to immunoprecipitation with anti-Flag antibody. Immunoprecipitated samples were handled as in FIG. 24A except Western blot analysis was performed with anti-Raf-1 antibody. Data represent one of three similar experiments.
Anti-Raf-1 antibody conjugated beads were prepared by overnight incubation of 2 μl of anti-Raf-1 antibody (a kind gift of Dr. Debbie Morrison) with 5 mg of the protein A conjugated sepharose beads, followed by washing three times with NP-40 lysis buffer. […] Lysates (0.8 mg total protein) were then incubated for 4 hrs with anti-Raf-1 bound sepharose beads or anti-Flag conjugated agarose beads. The beads were washed vigorously 5 times, boiled in Laemmli sample buffer, and proteins were separated on 7.5% SDS-PAGE. After electrophoresis, the gel was transferred to PVDF membrane and probed with anti-Flag antibody or anti-Raf-1 antibody.

[4] = biological target: T1, KSR; assay: KSR activity toward Raf-1 peptides in vitro; assay type: biochemical, mouse (KSR immunoprecipitated from COS-7 cells); design: Raf-1 peptides as substrate
Method: The wild type peptide contains eight potential phosphorylation sites (shown in bold). Substitution of alanines and glycines for serines and threonines generated one peptide (TTLP-peptide) containing only two potential phosphorylation sites (Thr^268,269) and another peptide (AALP-peptide) with no potential phosphorylation sites.
FIG. 28A--Flag-tagged KSR was immunoprecipitated from 0.2 mg COS-7 lysate, and assayed with TTLP- or AALP-peptides in the presence of 30 nM ceramide (Avanti) or diluent (DMSO). Background counts per minute (cpm) derived from samples incubated with the AALP-peptide which contains no phosphorylation sites were subtracted from all points. Background cpm always represented less than 25% of the untreated total.
FIG. 28B--Flag-tagged KSR immunoprecipitated from 0.2 mg COS-7 lysate was assayed with TTLP- or AALP-peptides in the presence of ceramide or diluent for 45 min as described in FIG. 7A.
FIG. 28C--Flag-tagged KSR was immunoprecipitated from 0.15 mg COS-7 lysate and assayed with TTLP- or AALP-peptides for 20 min in the presence of 30 nM of the indicated lipid second messengers as described in FIG. 28A (AA: arachidonic acid; LPA: lyso phosphatidic acid; PMA: phorbol 12-myristate 13-acetate; DAG: 1,2-diacylglycerol).
KSR-bound beads were incubated with reaction buffer B plus 10 mM MnCl2, 5 μM ATP and [γ-^32 P]ATP at 22° C. for the period of time indicated in the presence of 0.3 mM synthetic Raf-peptide or substrate peptides specific for other Ser/Thr protein kinases. […] (SEQ ID NO.3). Substitution of glycines and alanines for serines and threonines generated one peptide (termed TTLP-peptide) containing only two potential phosphorylation sites at Thr^268,269 (in bold), […] (SEQ ID NO. 24), and another peptide (termed AALP-peptide; SEQ ID No.6) with no potential phosphorylation sites, […] (SEQ ID No.25). The amino acid sequences of substrate peptides specific for other protein kinases (Joseph et al., 1993) are: […] (SEQ ID NO.26) (PKA); […] (SEQ ID NO.27) (S6 kinase); […] (SEQ ID NO.28)(CK II); […] (SEQ ID NO.29) (CaM kinase II); and […] (SEQ ID NO.30) (PKC). […] Substrate peptides for PKA and PKC were from Sigma (St. Louis, Mo.). The reaction was stopped by addition of a stop solution containing 0.5 M ATP in 90% formic acid. The beads were removed by centrifugation at 5000×g for 2 min and the supernatant was loaded on P81 Whatman filter paper. The filter was air dried and washed in 4 mM Na2 H2 P2 O7, 1 mM acetic acid for one hour. The filter was baked at 90° C. for 10 min and quantified by Cerenkov counting using a Beckman LS 5000TD scintillation counter. In some experiments, samples were separated by C18 reverse-phase chromatography on HPLC (Mathias et al., 1991) to verify the results of the filter assay. Virtually identical results were obtained with both methods.

[5] = tested on: CAP kinase; assay: Phosphorylation of Raf-1 peptides by CAP kinase; assay type: biochemical, bovine (brain)

Row | Molecule | activity of immunoprecipitated KSR to phosphorylate and activate Raf-1 [1] | concentration of maximal effect ([2]; C2-ceramide) [µM] | lowest effective concentration (KSR activity) ([2]; C2-ceramide) [nM] | fold induction at 40 µM ([2]; COS-7, 10 min, 40 μM C2-ceramide, read-out: maximal enhancement of KSR autophosphorylating activity) | co-immunoprecipitation of KSR with Raf-1 ([3]; 50 μM C2-ceramide, anti-Raf-1 precipitation) | co-immunoprecipitation of Raf-1 with KSR ([3]; C2-ceramide, anti-Flag precipitation) | phosphorylation of peptide by KSR [4] | phosphorylation of Raf-1 peptide by CAP kinase [5]
1 | CCCCCCCCCCCCC/C=C/[C@@H](O)[C@H](CO)NC(C)=O [C2-ceramide] | markedly enhanced | 40 | 50 | 5 to 10 | significantly enhanced | dramatically enhanced |  | 
2 | RQRSTSTPNVHMVSTTLPVDSRMIE [wild type Raf-peptide] |  |  |  |  |  |  | phosphorylated to the same extent | phosphorylated
